# Results published in patent US20230233484A1, “USE OF VITAMIN K IN PREVENTING OR COU[…]-19 DISEASE AND DIAGNOSTIC TEST TO ESTIMATE THE RISK OF […] DISEASE OR MORTALITY BY COVID-19” (EMPHYSEMA SOLUTIONS BV, priority 2020, published 2023).
# Key:
# Covid-19 [1] = assay: Ongoing intervention trial of vitamin K administration in Covid-19 patients; assay type: in vivo; details: twelve Covid-19 patients have received treatment
# From the text: (§1) Procoagulant prothrombin activation by vitamin K remained preserved in the majority of Covid-19 patients. Impaired MGP activation was linked to accelerated elastic fiber degradation and premorbid vascular calcifications. About fifty percent of total anticoagulant protein S is activated extra-hepatically by vitamin K, and this activation is likely also impaired during Covid-19. Given the fact that procoagulant activity remains intact, this is compatible with the increased thrombogenicity that is frequently observed in severe Covid-19. Based on our findings we expect that increasing MGP and protein S activity by vitamin K administration will considerably improve Covid-19 outcomes. An intervention trial to confirm this hypothesis is currently ongoing.
# dp-ucMGP = details: vitamin K supplementation; cited from earlier work
# Chain of dp-ucMGP (P08493 20-96): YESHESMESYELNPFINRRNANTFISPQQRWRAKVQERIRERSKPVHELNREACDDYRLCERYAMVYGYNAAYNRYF
# Covid-19 [2] = assay: Cohort of hospitalized COVID-19 patients treated with vitamin K, compared with previous COVID-19 cohorts; assay type: in vivo; details: hospitalized COVID-19 cohort treated with vitamin K vs previous COVID-19 cohorts from the same hospital
# From the text: as §1
substance,measurement,setting,value
vitamin K,safety issues,Covid-19 [1],no unexpected safety issues
same,effect on dp-ucMGP levels,dp-ucMGP,reducing effect
same,ICU admission rate,Covid-19 [2],significantly lower
same,mortality,Covid-19 [2],significantly lower
